Test results as given in the kinase profiling compilation of Christmann-Franck et al. (2016).

Legend:
Experiment in all cases: radiometric filter-binding kinase assay
PAK7 (human) = PAK7 (human) (UniProt Q9P286)
MAPK8 (human) = MAPK8 (human) (UniProt P45983)
MAP3K11 (human) = MAP3K11 (human) (UniProt Q16584)
MKNK1 (human) = MKNK1 (human) (UniProt Q9BUB5)
EPHB3 (human) = EPHB3 (human) (UniProt P54753)
RPS6KA1 KD1 KD2 (human) = RPS6KA1 KD1 KD2 (human) (UniProt Q15418)
EPHB2 (human) = EPHB2 (human) (UniProt P29323)
PAK4 (human) = PAK4 (human) (UniProt O96013)
CHEK2 (human) = CHEK2 (human) (UniProt O96017)
AURKA (human) = AURKA (human) (UniProt O14965)
BRSK2 (human) = BRSK2 (human) (UniProt Q8IWQ3)
MAPK10 (human) = MAPK10 (human) (UniProt P53779)
[1] = system: AKT1 (human), P31749 [S473D]
MAPK3 (human) = MAPK3 (human) (UniProt P27361)
MAPK12 (human) = MAPK12 (human) (UniProt P53778)
MARK2 (human) = MARK2 (human) (UniProt Q7KZI7)
MAPKAPK3 (human) = MAPKAPK3 (human) (UniProt Q16644)
MST4 (human) = MST4 (human) (UniProt Q9P289)
DYRK2 (human) = DYRK2 (human) (UniProt Q92630)
MAP2K6 (human) = MAP2K6 (human) (UniProt P52564)
PRKAA1 or PRKAA2 (rat) = settings: accession and sequence are those of the human protein
[2] = system: SGK1 (human), O00141 [S422D]
IKBKE (human) = IKBKE (human) (UniProt Q14164)
PRKACA (human) = PRKACA (human) (UniProt P17612)
ERBB4 (human) = ERBB4 (human) (UniProt Q15303)
PLK1 (human) = PLK1 (human) (UniProt P53350)
CaMK1 (human) = CaMK1 (human) (UniProt Q14012)
MAPK1 (human) = MAPK1 (human) (UniProt P28482)
NEK2 (human) = NEK2 (human) (UniProt P51955)
PRKCA (human) = PRKCA (human) (UniProt P17252)
SYK (human) = SYK (human) (UniProt P43405)
MAPK13 (human) = MAPK13 (human) (UniProt O15264)
DYRK1A (human) = DYRK1A (human) (UniProt Q13627)
HIPK2 (human) = HIPK2 (human) (UniProt Q9H2X6)
NUAK1 (human) = NUAK1 (human) (UniProt O60285)

Sequence of PLK1 (human) (P53350 whole entry, looked up): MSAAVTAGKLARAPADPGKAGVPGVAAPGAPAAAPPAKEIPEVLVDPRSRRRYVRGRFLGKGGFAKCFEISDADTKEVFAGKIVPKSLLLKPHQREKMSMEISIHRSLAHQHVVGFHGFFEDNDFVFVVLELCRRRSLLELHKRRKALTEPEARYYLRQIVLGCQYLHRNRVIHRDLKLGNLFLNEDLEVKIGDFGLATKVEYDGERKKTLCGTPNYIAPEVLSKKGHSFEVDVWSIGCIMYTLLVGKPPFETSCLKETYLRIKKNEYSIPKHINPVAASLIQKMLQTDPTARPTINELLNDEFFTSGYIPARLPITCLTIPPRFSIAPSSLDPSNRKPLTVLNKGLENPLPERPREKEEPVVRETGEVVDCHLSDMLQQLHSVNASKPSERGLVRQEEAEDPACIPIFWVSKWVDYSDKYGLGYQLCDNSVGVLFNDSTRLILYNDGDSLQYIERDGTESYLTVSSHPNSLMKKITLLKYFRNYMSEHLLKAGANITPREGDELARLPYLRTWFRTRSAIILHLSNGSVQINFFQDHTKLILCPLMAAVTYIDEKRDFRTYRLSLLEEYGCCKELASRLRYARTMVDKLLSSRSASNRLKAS
Sequence of DYRK2 (human) (Q92630 whole entry, looked up): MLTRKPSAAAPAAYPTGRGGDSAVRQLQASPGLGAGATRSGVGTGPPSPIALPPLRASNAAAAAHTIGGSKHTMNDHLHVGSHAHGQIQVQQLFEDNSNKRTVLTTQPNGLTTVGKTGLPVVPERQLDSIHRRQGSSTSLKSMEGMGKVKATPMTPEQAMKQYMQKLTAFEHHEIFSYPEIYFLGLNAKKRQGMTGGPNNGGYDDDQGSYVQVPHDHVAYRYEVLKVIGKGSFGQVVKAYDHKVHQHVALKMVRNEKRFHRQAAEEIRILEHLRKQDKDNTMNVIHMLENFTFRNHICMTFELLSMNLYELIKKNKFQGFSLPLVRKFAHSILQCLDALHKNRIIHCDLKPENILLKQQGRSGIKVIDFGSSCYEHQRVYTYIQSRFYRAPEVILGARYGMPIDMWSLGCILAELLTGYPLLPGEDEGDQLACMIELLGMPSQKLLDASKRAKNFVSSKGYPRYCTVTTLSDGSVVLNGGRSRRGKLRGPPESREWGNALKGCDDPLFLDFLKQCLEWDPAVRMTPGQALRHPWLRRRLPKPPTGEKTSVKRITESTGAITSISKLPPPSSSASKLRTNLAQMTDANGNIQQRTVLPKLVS
Sequence of MAPK8 (human) (P45983 whole entry, looked up): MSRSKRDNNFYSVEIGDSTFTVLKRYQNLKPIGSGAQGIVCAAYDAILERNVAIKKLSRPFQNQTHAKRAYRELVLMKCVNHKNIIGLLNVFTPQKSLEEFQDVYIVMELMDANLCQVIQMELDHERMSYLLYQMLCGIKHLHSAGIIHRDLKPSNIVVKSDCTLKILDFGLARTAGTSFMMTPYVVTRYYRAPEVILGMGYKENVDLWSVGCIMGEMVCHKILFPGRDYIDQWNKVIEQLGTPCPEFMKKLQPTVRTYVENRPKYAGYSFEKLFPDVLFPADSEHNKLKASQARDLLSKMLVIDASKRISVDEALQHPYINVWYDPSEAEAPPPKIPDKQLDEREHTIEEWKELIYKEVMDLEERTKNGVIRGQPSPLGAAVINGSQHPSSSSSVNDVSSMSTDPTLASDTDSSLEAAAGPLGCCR
Sequence of MAPK12 (human) (P53778 whole entry, looked up): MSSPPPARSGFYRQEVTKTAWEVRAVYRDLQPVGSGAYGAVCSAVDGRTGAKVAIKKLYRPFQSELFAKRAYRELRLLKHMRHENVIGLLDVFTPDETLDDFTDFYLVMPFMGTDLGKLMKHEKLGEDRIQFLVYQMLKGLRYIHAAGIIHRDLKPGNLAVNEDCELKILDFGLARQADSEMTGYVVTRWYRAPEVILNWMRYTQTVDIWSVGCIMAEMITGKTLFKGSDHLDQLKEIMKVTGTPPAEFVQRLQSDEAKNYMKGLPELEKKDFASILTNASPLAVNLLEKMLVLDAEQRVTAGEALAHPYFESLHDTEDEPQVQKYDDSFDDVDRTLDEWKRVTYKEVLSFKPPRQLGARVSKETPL
Sequence of MKNK1 (human) (Q9BUB5 whole entry, looked up): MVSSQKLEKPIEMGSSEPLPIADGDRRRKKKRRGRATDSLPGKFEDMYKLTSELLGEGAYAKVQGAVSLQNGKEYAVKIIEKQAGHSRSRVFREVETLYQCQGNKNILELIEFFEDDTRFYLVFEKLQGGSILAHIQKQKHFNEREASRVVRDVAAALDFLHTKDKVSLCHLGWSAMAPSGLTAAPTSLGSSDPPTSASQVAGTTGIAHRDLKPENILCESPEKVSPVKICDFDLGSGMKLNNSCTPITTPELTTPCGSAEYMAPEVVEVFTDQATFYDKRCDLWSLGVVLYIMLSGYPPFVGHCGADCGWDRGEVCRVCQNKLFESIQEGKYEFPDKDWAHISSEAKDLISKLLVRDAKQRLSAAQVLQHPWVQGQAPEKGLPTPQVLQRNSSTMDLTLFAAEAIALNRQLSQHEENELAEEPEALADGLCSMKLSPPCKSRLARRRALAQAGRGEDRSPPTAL
Sequence of MAPK1 (human) (P28482 whole entry, looked up): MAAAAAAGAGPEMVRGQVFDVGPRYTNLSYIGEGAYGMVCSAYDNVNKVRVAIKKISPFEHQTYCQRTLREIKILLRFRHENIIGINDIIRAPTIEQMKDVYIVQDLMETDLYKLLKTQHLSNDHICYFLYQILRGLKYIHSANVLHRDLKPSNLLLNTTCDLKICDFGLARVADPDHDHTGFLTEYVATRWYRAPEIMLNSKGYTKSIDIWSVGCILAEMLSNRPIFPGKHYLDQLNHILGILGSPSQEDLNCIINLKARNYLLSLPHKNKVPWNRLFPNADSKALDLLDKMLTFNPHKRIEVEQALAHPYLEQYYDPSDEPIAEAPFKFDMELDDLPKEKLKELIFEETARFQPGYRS
Sequence of NEK2 (human) (P51955 whole entry, looked up): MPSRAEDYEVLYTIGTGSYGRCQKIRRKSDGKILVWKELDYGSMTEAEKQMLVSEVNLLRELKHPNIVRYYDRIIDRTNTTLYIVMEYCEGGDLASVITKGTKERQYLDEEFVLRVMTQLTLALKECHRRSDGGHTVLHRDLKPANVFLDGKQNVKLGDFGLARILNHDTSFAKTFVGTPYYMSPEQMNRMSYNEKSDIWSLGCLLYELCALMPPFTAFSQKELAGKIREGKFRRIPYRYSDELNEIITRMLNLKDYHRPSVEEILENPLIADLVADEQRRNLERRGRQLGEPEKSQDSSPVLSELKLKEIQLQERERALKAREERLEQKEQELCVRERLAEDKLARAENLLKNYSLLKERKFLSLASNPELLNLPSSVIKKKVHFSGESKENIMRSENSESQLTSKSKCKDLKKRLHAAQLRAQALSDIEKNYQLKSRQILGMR
Sequence of MAPK3 (human) (P27361 whole entry, looked up): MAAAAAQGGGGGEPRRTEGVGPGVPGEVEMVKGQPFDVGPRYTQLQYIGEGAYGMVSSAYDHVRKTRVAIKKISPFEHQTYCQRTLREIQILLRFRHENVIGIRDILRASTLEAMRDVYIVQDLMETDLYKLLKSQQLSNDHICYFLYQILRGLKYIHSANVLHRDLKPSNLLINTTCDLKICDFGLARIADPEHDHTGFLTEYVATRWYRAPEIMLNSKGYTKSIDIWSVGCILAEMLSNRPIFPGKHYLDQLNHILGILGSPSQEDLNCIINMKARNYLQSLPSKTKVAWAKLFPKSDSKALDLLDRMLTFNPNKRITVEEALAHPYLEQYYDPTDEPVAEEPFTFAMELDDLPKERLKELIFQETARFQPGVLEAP
Sequence of SGK1 (human), O00141 [S422D] (O00141 whole entry S422D, looked up): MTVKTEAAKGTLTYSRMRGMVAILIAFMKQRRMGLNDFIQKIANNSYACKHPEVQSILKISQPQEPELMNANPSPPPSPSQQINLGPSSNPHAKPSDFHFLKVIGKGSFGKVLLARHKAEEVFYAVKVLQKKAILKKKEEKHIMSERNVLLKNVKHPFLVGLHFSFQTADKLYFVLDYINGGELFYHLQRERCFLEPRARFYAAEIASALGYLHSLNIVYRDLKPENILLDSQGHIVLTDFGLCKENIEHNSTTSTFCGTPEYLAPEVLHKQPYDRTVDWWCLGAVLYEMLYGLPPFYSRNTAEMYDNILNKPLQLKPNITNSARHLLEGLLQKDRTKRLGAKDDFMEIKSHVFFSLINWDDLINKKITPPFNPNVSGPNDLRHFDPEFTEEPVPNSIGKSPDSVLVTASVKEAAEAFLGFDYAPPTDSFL
Sequence of RPS6KA1 KD1 KD2 (human) (Q15418 whole entry, looked up): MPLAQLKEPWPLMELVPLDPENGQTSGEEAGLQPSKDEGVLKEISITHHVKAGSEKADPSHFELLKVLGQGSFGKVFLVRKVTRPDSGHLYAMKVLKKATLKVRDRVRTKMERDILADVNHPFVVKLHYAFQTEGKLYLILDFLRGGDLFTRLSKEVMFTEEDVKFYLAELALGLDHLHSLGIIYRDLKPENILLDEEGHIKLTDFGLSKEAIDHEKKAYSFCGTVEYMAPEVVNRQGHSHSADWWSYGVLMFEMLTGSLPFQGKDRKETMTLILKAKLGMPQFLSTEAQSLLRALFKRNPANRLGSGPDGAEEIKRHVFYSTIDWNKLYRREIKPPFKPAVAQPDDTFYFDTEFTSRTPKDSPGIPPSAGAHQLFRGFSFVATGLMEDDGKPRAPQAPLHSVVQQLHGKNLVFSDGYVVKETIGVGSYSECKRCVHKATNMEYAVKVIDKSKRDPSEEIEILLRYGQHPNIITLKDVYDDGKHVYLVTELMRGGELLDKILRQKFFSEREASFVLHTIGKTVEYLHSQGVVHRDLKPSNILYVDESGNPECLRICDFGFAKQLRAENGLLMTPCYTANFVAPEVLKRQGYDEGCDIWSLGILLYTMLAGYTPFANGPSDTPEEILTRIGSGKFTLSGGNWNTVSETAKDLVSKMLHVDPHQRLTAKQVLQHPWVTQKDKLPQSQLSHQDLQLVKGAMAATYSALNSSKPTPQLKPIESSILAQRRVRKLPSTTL

**Q.** What does the source list for `O=C(Nc1ccccc1-c1cn2c(CN3CCNCC3)csc2n1)c1cnc2ccccc2n1`?
**A.** residual activity (PAK7 (human); compound 0.1 µM): 79%; residual activity (PAK7 (human); compound 1.0 µM): 91%; residual activity (PAK7 (human); compound 10.0 µM): 72%; residual activity (MAPK8 (human); compound 0.1 µM): 116%; residual activity (MAPK8 (human); compound 1.0 µM): 103%; residual activity (MAPK8 (human); compound 10.0 µM): 86%; residual activity (MAP3K11 (human); compound 1.0 µM): 88%; residual activity (MAP3K11 (human); compound 10.0 µM): 56%; residual activity (MKNK1 (human); compound 0.1 µM): 92%; residual activity (MKNK1 (human); compound 1.0 µM): 100%; residual activity (MKNK1 (human); compound 10.0 µM): 97%; residual activity (EPHB3 (human); compound 0.1 µM): 99%; residual activity (EPHB3 (human); compound 1.0 µM): 99%; residual activity (EPHB3 (human); compound 10.0 µM): 90%; residual activity (RPS6KA1 KD1 KD2 (human); compound 0.1 µM): 88%; residual activity (RPS6KA1 KD1 KD2 (human); compound 1.0 µM): 66%; residual activity (RPS6KA1 KD1 KD2 (human); compound 10.0 µM): 34%; residual activity (EPHB2 (human); compound 1.0 µM): 82%; residual activity (EPHB2 (human); compound 10.0 µM): 84%; residual activity (PAK4 (human); compound 0.1 µM): 83%; residual activity (PAK4 (human); compound 1.0 µM): 110%; residual activity (PAK4 (human); compound 10.0 µM): 96%; residual activity (CHEK2 (human); compound 0.1 µM): 85%; residual activity (CHEK2 (human); compound 1.0 µM): 93%; residual activity (CHEK2 (human); compound 10.0 µM): 54%; residual activity (AURKA (human); compound 1.0 µM): 102%; residual activity (AURKA (human); compound 10.0 µM): 94%; residual activity (BRSK2 (human); compound 0.1 µM): 86%; residual activity (BRSK2 (human); compound 1.0 µM): 97%; residual activity (BRSK2 (human); compound 10.0 µM): 90%; residual activity (MAPK10 (human); compound 1.0 µM): 105%; residual activity (MAPK10 (human); compound 10.0 µM): 89%; residual activity ([1]; compound 0.1 µM): 86%; residual activity ([1]; compound 1.0 µM): 91%; residual activity ([1]; compound 10.0 µM): 88%; residual activity (MAPK3 (human); compound 0.1 µM): 88%; residual activity (MAPK3 (human); compound 1.0 µM): 105%; residual activity (MAPK3 (human); compound 10.0 µM): 117%; residual activity (MAPK12 (human); compound 0.1 µM): 84%; residual activity (MAPK12 (human); compound 1.0 µM): 95%; residual activity (MAPK12 (human); compound 10.0 µM): 92%; residual activity (MARK2 (human); compound 1.0 µM): 106%; residual activity (MARK2 (human); compound 10.0 µM): 83%; residual activity (MAPKAPK3 (human); compound 1.0 µM): 90%; residual activity (MAPKAPK3 (human); compound 10.0 µM): 100%; residual activity (MST4 (human); compound 0.1 µM): 73%; residual activity (MST4 (human); compound 1.0 µM): 100%; residual activity (MST4 (human); compound 10.0 µM): 77%; residual activity (DYRK2 (human); compound 0.1 µM): 98%; residual activity (DYRK2 (human); compound 1.0 µM): 94%; residual activity (DYRK2 (human); compound 10.0 µM): 94%; residual activity (MAP2K6 (human); compound 1.0 µM): 97%; residual activity (MAP2K6 (human); compound 10.0 µM): 98%; residual activity (PRKAA1 or PRKAA2 (rat); compound 0.1 µM): 83%; residual activity (PRKAA1 or PRKAA2 (rat); compound 1.0 µM): 88%; residual activity (PRKAA1 or PRKAA2 (rat); compound 10.0 µM): 60%; residual activity ([2]; compound 0.1 µM): 89%; residual activity ([2]; compound 1.0 µM): 94%; residual activity ([2]; compound 10.0 µM): 84%; residual activity (IKBKE (human); compound 0.1 µM): 90%; residual activity (IKBKE (human); compound 1.0 µM): 102%; residual activity (IKBKE (human); compound 10.0 µM): 83%; residual activity (PRKACA (human); compound 0.1 µM): 80%; residual activity (PRKACA (human); compound 1.0 µM): 106%; residual activity (PRKACA (human); compound 10.0 µM): 84%; residual activity (ERBB4 (human); compound 1.0 µM): 80%; residual activity (ERBB4 (human); compound 10.0 µM): 86%; residual activity (PLK1 (human); compound 0.1 µM): 84%; residual activity (PLK1 (human); compound 1.0 µM): 94%; residual activity (PLK1 (human); compound 10.0 µM): 104%; residual activity (CaMK1 (human); compound 0.1 µM): 109%; residual activity (CaMK1 (human); compound 1.0 µM): 83%; residual activity (CaMK1 (human); compound 10.0 µM): 22%; residual activity (MAPK1 (human); compound 0.1 µM): 93%; residual activity (MAPK1 (human); compound 1.0 µM): 103%; residual activity (MAPK1 (human); compound 10.0 µM): 97%; residual activity (NEK2 (human); compound 0.1 µM): 91%; residual activity (NEK2 (human); compound 1.0 µM): 95%; residual activity (NEK2 (human); compound 10.0 µM): 87%; residual activity (PRKCA (human); compound 0.1 µM): 114%; residual activity (PRKCA (human); compound 1.0 µM): 106%; residual activity (PRKCA (human); compound 10.0 µM): 80%; residual activity (SYK (human); compound 0.1 µM): 109%; residual activity (SYK (human); compound 1.0 µM): 93%; residual activity (SYK (human); compound 10.0 µM): 67%; residual activity (MAPK13 (human); compound 0.1 µM): 91%; residual activity (MAPK13 (human); compound 1.0 µM): 78%; residual activity (MAPK13 (human); compound 10.0 µM): 85%; residual activity (DYRK1A (human); compound 0.1 µM): 101%; residual activity (DYRK1A (human); compound 1.0 µM): 94%; residual activity (DYRK1A (human); compound 10.0 µM): 58%; residual activity (HIPK2 (human); compound 1.0 µM): 86%; residual activity (HIPK2 (human); compound 10.0 µM): 38%; residual activity (NUAK1 (human); compound 1.0 µM): 106%; residual activity (NUAK1 (human); compound 10.0 µM): 78%
